Assay results published in patent US20020137929A1, “1 - (3-heterocyclylphenyl) isothiourea, -isourea, -guanidine and -amidine herbicidal agents” (Intellectual Property Department, BASF Aktiengesellschaft, priority 1998, published 2002).

What was measured:
SETVI (Foxtail, Green) [1] = test: Postemergence herbicidal evaluation; format: in vivo, Setaria viridis; settings: postemergence
Outline: (§1)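 Herbicidal effect was judged by eye on a 0–9 scale covering stand, vigor, deformity, size and chlorosis, compared with controls, four to five weeks after seedlings about two weeks old were sprayed (40 psi, ~0.0156–0.500 kg/ha).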

ORYSAT (Rice, Tebonnet) = test: Postemergence herbicidal evaluation; format: in vivo, Oryza sativa, (L.) Tebonnet; settings: postemergence
Outline: as §1

[2] = test system: GLXMAW (Soybean, Williams); test: Postemergence herbicidal evaluation; format: in vivo, Glycine max, (L.) Merr. cv Williams; settings: postemergence
Outline: as §1

[3] = test system: TRZAWR (Wheat, Winter, cv Riband); test: Postemergence herbicidal evaluation; format: in vivo, Triticum aestivum; settings: postemergence
Outline: as §1

CYPIR (Rice Flatsedge) = test: Preemergence weed control under flooded paddy conditions; format: in vivo, Cyperus iria; settings: rated 3-4 weeks after treatment
Outline: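 Visual injury scored 0-9 against control three to four weeks post-treatment, greenhouse-grown. Application: acetone/water (50/50) solutions dosed directly into flood water (1.5-3 cm over silt loam, planted top 0.5 cm), roughly 0.0313 to 0.500 kg/ha active ingredient.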

ZEAMX (Corn, Field) = test: Postemergence herbicidal evaluation; format: in vivo, Zea mays; settings: postemergence
Outline: as §1

AMBEL (Ragweed, Common) = test: Preemergence herbicidal evaluation; format: in vivo, Ambrosia artemisifolia; settings: rated 4-5 weeks after treatment
Outline: (§2)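 Scores use a 0–9 visual scale covering stand, vigor, malformation, size and chlorosis relative to controls, rated four to five weeks after treatment. Before emergence, soil-planted seeds were sprayed with compound in aqueous acetone at roughly 0.0156–0.500 kg/ha and held in the greenhouse.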

[4] = test system: CHEAL (Lambsquarters, Common); test: Postemergence herbicidal evaluation; format: in vivo, Chenopodium album; settings: postemergence
Outline: as §1

ABUTH (Velvetleaf) = test: Postemergence herbicidal evaluation; format: in vivo, Abutilon theophrasti; settings: postemergence
Outline: as §1

SETVI (Foxtail, Green) [5] = test: Preemergence herbicidal evaluation; format: in vivo, Setaria viridis; settings: rated 4-5 weeks after treatment
Outline: as §2

GALAP (Galium) = test: Preemergence herbicidal evaluation; format: in vivo, Galium aparine; settings: rated 4-5 weeks after treatment
Outline: as §2

Q: What does the source list for CCOC(=O)CN1C(=O)C(Cl)SC1=Nc1cc(-n2c(=O)cc(C(F)(F)F)n(C)c2=O)c(F)cc1Cl (centres unmarked) [Compound 126, Ethyl 5-chloro-2-{{2-chloro-5-[3,6-dihydro-3-methyl-2,6-dioxo-4-(trifluoromethyl)-1(2H)-pyrimidinyl]-4-fluorophenyl}imino}-4-oxo-3-thiazolidineacetate]?
A: herbicidal rating SETVI (SETVI (Foxtail, Green) [1]; rate 0.0156 kg/ha): 0.0; herbicidal rating SETVI (SETVI (Foxtail, Green) [1]; rate 0.0313 kg/ha): 3.0; herbicidal rating SETVI (SETVI (Foxtail, Green) [1]; rate 0.0625 kg/ha): 3.0; herbicidal rating SETVI (SETVI (Foxtail, Green) [1]; rate 0.1250 kg/ha): 9.0; herbicidal rating ORYSAT (ORYSAT (Rice, Tebonnet); rate 0.0156 kg/ha): 0.0; herbicidal rating ORYSAT (ORYSAT (Rice, Tebonnet); rate 0.0313 kg/ha): 0.5; herbicidal rating ORYSAT (ORYSAT (Rice, Tebonnet); rate 0.0625 kg/ha): 0.5; herbicidal rating ORYSAT (ORYSAT (Rice, Tebonnet); rate 0.1250 kg/ha): 1.0; herbicidal rating GLXMAW ([2]; rate 0.0156 kg/ha): 5.0; herbicidal rating GLXMAW ([2]; rate 0.0313 kg/ha): 5.5; herbicidal rating GLXMAW ([2]; rate 0.0625 kg/ha): 6.0; herbicidal rating GLXMAW ([2]; rate 0.1250 kg/ha): 7.0; herbicidal rating TRZAWR ([3]; rate 0.0156 kg/ha): 2.0; herbicidal rating TRZAWR ([3]; rate 0.0313 kg/ha): 2.5; herbicidal rating TRZAWR ([3]; rate 0.0625 kg/ha): 3.0; herbicidal rating TRZAWR ([3]; rate 0.1250 kg/ha): 3.5; herbicidal effect rating, CYPIR (CYPIR (Rice Flatsedge); 0.0313 kg/ha): 0.0; herbicidal effect rating, CYPIR (CYPIR (Rice Flatsedge); 0.0625 kg/ha): 0.0; herbicidal effect rating, CYPIR (CYPIR (Rice Flatsedge); 0.1250 kg/ha): 0.0; herbicidal effect rating, CYPIR (CYPIR (Rice Flatsedge); 0.2500 kg/ha): 2.0; herbicidal rating ZEAMX (ZEAMX (Corn, Field); rate 0.0156 kg/ha): 4.0; herbicidal rating ZEAMX (ZEAMX (Corn, Field); rate 0.0313 kg/ha): 4.0; herbicidal rating ZEAMX (ZEAMX (Corn, Field); rate 0.0625 kg/ha): 4.5; herbicidal rating ZEAMX (ZEAMX (Corn, Field); rate 0.1250 kg/ha): 6.5; Preemergence herbicidal rating AMBEL (AMBEL (Ragweed, Common); rate 0.0625 kg/ha): 0.0; Preemergence herbicidal rating AMBEL (AMBEL (Ragweed, Common); rate 0.1250 kg/ha): 0.0; Preemergence herbicidal rating AMBEL (AMBEL (Ragweed, Common); rate 0.2500 kg/ha): 4.0; Preemergence herbicidal rating AMBEL (AMBEL (Ragweed, Common); rate 0.5000 kg/ha): 5.0; herbicidal rating CHEAL ([4]; rate 0.0156 kg/ha): 4.0; herbicidal rating CHEAL ([4]; rate 0.0313 kg/ha): 4.0; herbicidal rating CHEAL ([4]; rate 0.0625 kg/ha): 4.0; herbicidal rating CHEAL ([4]; rate 0.1250 kg/ha): 9.0; herbicidal rating ABUTH (ABUTH (Velvetleaf); rate 0.0156 kg/ha): 5.0; herbicidal rating ABUTH (ABUTH (Velvetleaf); rate 0.0313 kg/ha): 9.0; herbicidal rating ABUTH (ABUTH (Velvetleaf); rate 0.0625 kg/ha): 9.0; herbicidal rating ABUTH (ABUTH (Velvetleaf); rate 0.1250 kg/ha): 9.0; Preemergence herbicidal rating SETVI (SETVI (Foxtail, Green) [5]; rate 0.0625 kg/ha): 0.0; Preemergence herbicidal rating SETVI (SETVI (Foxtail, Green) [5]; rate 0.1250 kg/ha): 0.0; Preemergence herbicidal rating SETVI (SETVI (Foxtail, Green) [5]; rate 0.2500 kg/ha): 3.0; Preemergence herbicidal rating SETVI (SETVI (Foxtail, Green) [5]; rate 0.5000 kg/ha): 9.0; Preemergence herbicidal rating GALAP (GALAP (Galium); rate 0.0625 kg/ha): 0.0; Preemergence herbicidal rating GALAP (GALAP (Galium); rate 0.1250 kg/ha): 0.0; Preemergence herbicidal rating GALAP (GALAP (Galium); rate 0.2500 kg/ha): 9.0; Preemergence herbicidal rating GALAP (GALAP (Galium); rate 0.5000 kg/ha): 9.0
